Reference: US20110112299A1, “TETRACYCLIC COMPOUND” (KYOWA HAKKO KIRIN CO., LTD., priority 2008, published 2011)

How the values were obtained:
[1] = biological target: T1, recombinant human glucocorticoid receptor (Homo sapiens, UniProt P04150); assay: Human glucocorticoid receptor assay (fluorescence polarization, Test Example 1); type: binding
T1 construct: purchased Panvera/Invitrogen P2812 (kit P2893)
T1 sequence (P04150 1-777): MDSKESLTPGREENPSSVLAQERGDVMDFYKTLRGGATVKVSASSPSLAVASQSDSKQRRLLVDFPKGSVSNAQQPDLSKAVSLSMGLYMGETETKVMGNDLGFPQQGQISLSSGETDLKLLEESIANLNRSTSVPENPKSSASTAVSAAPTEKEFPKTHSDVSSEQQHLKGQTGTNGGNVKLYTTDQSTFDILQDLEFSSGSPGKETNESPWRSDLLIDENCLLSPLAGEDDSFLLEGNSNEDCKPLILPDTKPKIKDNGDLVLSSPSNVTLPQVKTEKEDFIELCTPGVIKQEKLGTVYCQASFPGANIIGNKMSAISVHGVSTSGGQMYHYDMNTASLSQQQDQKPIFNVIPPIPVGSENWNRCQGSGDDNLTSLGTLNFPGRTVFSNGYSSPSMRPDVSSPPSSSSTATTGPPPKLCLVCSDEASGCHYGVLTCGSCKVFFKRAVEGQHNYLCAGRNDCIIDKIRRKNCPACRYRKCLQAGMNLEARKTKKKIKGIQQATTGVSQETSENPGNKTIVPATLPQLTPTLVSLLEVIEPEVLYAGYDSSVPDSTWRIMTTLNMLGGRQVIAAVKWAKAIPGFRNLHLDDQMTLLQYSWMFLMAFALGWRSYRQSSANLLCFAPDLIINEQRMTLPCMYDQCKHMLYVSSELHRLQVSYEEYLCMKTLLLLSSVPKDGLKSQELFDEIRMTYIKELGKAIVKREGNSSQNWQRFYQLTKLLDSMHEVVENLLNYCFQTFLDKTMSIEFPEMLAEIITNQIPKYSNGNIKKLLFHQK
Procedure: In this assay, a fluorescence polarization assay kit (Panvera/Invitrogen, product number: P2893) was used. The recombinant human glucocorticoid receptor (product number: P2812), the Fluoromore (trademark)-labeled dexamethasone (GS Green, product number: P2813), the stabilizing peptide solution (product number: P2815), and the basic buffer solution (product number: P2814) which were used in the assay kit had been stored at −80° C. until used. A buffer solution for the assay was prepared by adding the basic buffer solution (10 fold dilution), the stabilizing peptide solution (10 fold dilution), and 1 mol/L DTT (1000 fold dilution to give a final concentration of 1 mmol/L).
(§1) The assay was performed as follows. […] The fluorescence polarization value of each well was measured using a plate reader (PerkinElmer, Fusion or Envision). […] To a positive control group, dexamethasone was added so as to give a final concentration of 1 μmol/L. The glucocorticoid receptor binding rate (%) was calculated by the following formula.
Glucocorticoid receptor binding rate (%)=100×[1-(fluorescence polarization value of test compound solution−fluorescence polarization value of positive control solution)/(fluorescence polarization value of negative control solution−fluorescence polarization value of positive control solution)]

[2] = biological target: T2, recombinant human progesterone receptor (Homo sapiens, UniProt P06401); assay: Human progesterone receptor assay (fluorescence polarization, Test Example 2); type: binding; conditions: at a concentration of 1000 nmol/L
T2 construct: purchased Panvera/Invitrogen P2899 (kit P2895)
T2 sequence (P06401 675-933 limits assumed): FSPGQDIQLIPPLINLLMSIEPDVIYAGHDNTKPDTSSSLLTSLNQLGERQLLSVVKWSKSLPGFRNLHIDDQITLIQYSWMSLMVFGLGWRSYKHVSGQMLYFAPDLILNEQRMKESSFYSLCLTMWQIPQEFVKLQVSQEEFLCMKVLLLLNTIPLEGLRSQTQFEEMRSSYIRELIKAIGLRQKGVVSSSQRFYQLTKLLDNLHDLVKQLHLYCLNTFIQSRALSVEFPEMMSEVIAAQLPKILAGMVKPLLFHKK
Procedure: In this assay, a fluorescence polarization assay kit (Panvera/Invitrogen, product number: P2895) was used. The recombinant human progesterone receptor (product number: P2899), the Fluoromore (trademark)-labeled progesterone (PL Green, product number: P2897), and the basic buffer solution (product number: P2901) which were used in the assay kit had been stored at −80° C. until used. A buffer solution for the assay was prepared by adding 250 fold dilution of 1 mol/L DTT to the basic buffer solution to give a final concentration of 4 mmol/L.
as §1, with “follows. The test compound was diluted to 2-fold of the desired concentration with the buffer solution for the assay, and 16 μL of that was added to each well.” for “follows.”, “mifepristone (RU-486)” for “dexamethasone”, “progesterone” for “glucocorticoid”
Progesterone receptor binding rate (%)=100×[1−(fluorescence polarization value of test compound solution−fluorescence polarization value of positive control solution)/(fluorescence polarization value of negative control solution−fluorescence polarization value of positive control solution)]

CC/C(=C1\c2cc3cnn(C)c3cc2COc2ccccc21)c1cccc(NS(C)(=O)=O)c1 [Compound 2, (Z)-5-{1-[3-(methanesulfonamide)phenyl]propylidene}-1-methyl-5,11-dihydrobenzo[6,7]oxepino[4,3-f]indazole]
inhibitory activity (glucocorticoid receptor binding rate) ([1]; at a concentration of 100 nmol/L or higher): ≥ 80%
selectivity for human glucocorticoid receptor over progesterone receptor ([1]; from the results of Test Examples 1 and 2): selective inhibitory activity to human glucocorticoid receptors
inhibitory activity (progesterone receptor binding rate) [2]: ≤ 10%
